The values below come from patent US4988730A, “Diphenkylpropylamines for the therapy of heart disease” (Chinoin Gyogyszer es Vegyeszeti Termekek Gyar RT, priority 1986, dated 1991).

Each structure is given as a SMILES string. Like-named read-outs stand apart in the source and are kept apart here.

Series [1] can be described thus: vasopressin-induced angina, comparison of calcium antagonists (table 2). It counts as in vivo. To be noted: for BP/Antianginal ED50 / ratio (row drawing 12; DP/dt max/antianginal by arithmetic): ratio, table 2.
The nature of series [2]: "two-step" coronary occlusion of Harris, extrasystolic activity in conscious dogs. It counts as in vivo. The conditions noted are these: for extrasystolic activity following by 24 hours the two-step coronary occlusion: conscious dogs, KHL-8430 2 mg/kg intravenous.
Series [3] in a line: vasopressin angina of rats (acute coronary failure induced by vasopressin). It counts as in vivo. The conditions noted are these: for ED50: Rattus norvegicus. An excerpt: Thus, such derivatives forming a more preferred group of the compounds of the formula (I), wherein R^1 is as defined above, R^2 means a methyl group, R^3 is halogen and R^4, R^5 and R^6 stand for hydrogen, show significant antianginal effects. In these derivatives, the halogen may be fluorine, chlorine or bromine. […] Thus, the above compound of the invention is about 42 times as effective as fendiline under the same conditions.
(§1) In the case of the vasopressin angina of rats [Papp and Szekeres: Arch. int. Pharmacodyn. 160, 147 (1966)], the antianginal activity measured at the 2nd minute following the intravenous administration or at the 60th minute after oral administration, respectively, as well as the intravenous and oral acute toxicity values, the therapeutic indices and the quotient of the therapeutic ratio of KHL-8430 to that of fendiline as measured in rats are summarized in Table 1.

Series [4] in a line: antiarrhythmic ("antifibrillatory") action, fibrillation threshold. The series is classed as in vivo. The conditions noted are these: table 2.
A short description of series [5]: acute toxicity in rats (LD50, therapeutic indices). The conditions noted are these: for LD50 / selectivity ratio: rat, in vivo; for LD50: acute toxicity; for selectivity ratio: LD50 and ED50 in vasopressin angina. It counts as in vivo.
From the text: as §1

A short description of series [6]: ventricular extrasystoles developing under the effect of a coronary occlusion. It counts as in vivo. To be noted: as opposed to fendiline.
A short description of series [7]: myocardial ischaemia induced by coronary occlusion in dogs. The series is classed as in vivo. To be noted: versus fendiline. An excerpt:
The myocardial ischaemia induced by coronary occlusion in dogs [Szekeres e al.: J. Pharm.

Series [8] is described as follows: anti-ischaemic protective action after an oral dose. It counts as in vivo.
A short description of series [9]: haemodynamic actions (blood pressure, heart rate, left ventricle contractility). To be noted: i.v.; KHL-8430, verapamil and fendiline. The series is classed as in vivo.
Series [10] in a line: haemodynamic study on dogs during coronary occlusion. The series is classed as in vivo. The conditions noted are these: in comparison with fendiline, verapamil or nifedipine.
The subject of series [11] is auricular and ventricular muscle of the isolated cat heart. The series can be described thus: antiarrhythmic action in auricular and ventricular muscle of the isolated cat heart.
The mark [12] stands for this setting: 1 h, vasopressin angina, 60th minute after oral administration, read-out: ED50, antianginal activity, oral.
[13] abbreviates: iv, 2 min, i.v. at 2 minutes before inducing the angina by i.v. 2 NE/kg of vasopressin, read-out: ED50, acute coronary failure induced by vasopressin.
Where [14] appears, read: iv, 2 min, vasopressin angina, 2nd minute following i.v. administration, read-out: ED50, antianginal activity, intravenous.
Where [15] appears, read: iv, rats, i.v., read-out: LD50, intravenous.
Setting [16] is: iv, rats, i.v., read-out: therapeutic index, intravenous (head is drawing 4).
Setting [17] is: rats, oral, read-out: LD50, oral.
[18] abbreviates: rats, oral, read-out: therapeutic index, oral (head is drawing 5).

The ED50 is the midpoint of the dose-response relation. For orientation: LD50 means the dose expected to kill half of the subjects tested.

`CC(NCCC(c1ccccc1)c1ccccc1)c1ccccc1` (stereo not drawn) [Fendiline, N-(3,3-diphenylpropyl)-α-methylbenzylamine, reference compound]: the “BP/Antianginal ED50” value in series [1] was 0.62. The “ratio (row drawing 12; DP/dt max/antianginal by arithmetic)” value in series [1] is on record as 0.41. Moreover, in series [2], the “extrasystolic activity following by 24 hours the two-step coronary occlusion” value (“extrasystolic activity following” below) is “no significant effect”. Besides, the ED50 came out at 20 mg/kg in series [3] (setting [12]), 2.3 mg/kg in series [3] (setting [13]) and 2.3 mg/kg in series [3] (setting [14]). Besides, the “ratio (row drawing 11; BP/FFT by arithmetic)” value in series [4] was 0.26. In series [4], the “ratio (row drawing 13; DP/dt max/FFT by arithmetic)” value amounted to 0.175. Besides, the figures for the LD50 in [5] (setting [15]) and in [5] (setting [17]) were 12.2 mg/kg and 800 mg/kg, respectively. The selectivity ratio in series [5] (setting [16]) came out at 5.3; in [5] (setting [18]) it was 40.
Regarding `COc1ccc(CCN(C)CCCC(C#N)(c2ccc(OC)c(OC)c2)C(C)C)cc1OC` (centres unmarked) [verapamil], the ED50 in series [1] (iv, read-out: ED50, Vasopressin-induced angina) was 0.1 mg/kg. For the same compound, in [1], the “BP/Antianginal ED50” value is 2.0 and the “ratio (row drawing 12; DP/dt max/antianginal by arithmetic)” value amounted to 0.7. Also, in [2], the “extrasystolic activity following” value is recorded as “no significant effect”. Besides, in series [4], the “ratio (row drawing 11; BP/FFT by arithmetic)” value was 0.13 and the “ratio (row drawing 13; DP/dt max/FFT by arithmetic)” value was found to be 0.04.
`COc1ccc(C(C)NCCC(c2ccccc2)c2ccccc2)cc1OC.Cl` (centres unmarked) [KHL-8430, 2-(3,4-Dimethoxyphenyl)-6,6-diphenyl-3-azahexane hydrochloride]: in series [6], the “restraint of ventricular extrasystoles under coronary occlusion” value is listed as “surprisingly capable to restrain the ventricular extrasystoles”. Moreover, in [1], the “BP/Antianginal ED50” value was found to be 3.75 and the “ratio (row drawing 12; DP/dt max/antianginal by arithmetic)” value is listed as 10.00. In addition, in [7] (intravenous or oral), the “decrease of myocardial ischaemia induced by coronary occlusion” value is “decreased more strongly and with a much longer duration”. In series [7], the “strength and duration of the effect on the ischaemic state induced by coronary occlusion” value is listed as “highly exceed that of fendiline”. In addition, in series [8], the “anti-ischaemic protective action after an oral dose” value is “very smooth”. Further, in [9], the haemodynamical therapeutic index result is recorded as “by far the best among the three calcium antagonists studied”. For the same compound, in [10], the “arterial blood pressure during coronary occlusion” value is given as “only a little lowered”, the “heart rate during coronary occlusion” value is “not decreased” and the “prolongation of the activation time in the ischaemic area” value is on record as “significantly restrained”. Further, the “antiarrhythmic action, auricular and ventricular muscle of the isolated cat heart” value in series [11] (compared with mexiletine) was “high antiarrhythmic action, which equals the effect of mexiletine”. The “antiarrhythmic action relative to fendiline, verapamil and other calcium antagonists” value in series [11] (isolated cat heart) was “by far surpassing that of fendiline, verapamil and other calcium antagonists”. Besides, in series [2], the “extrasystolic activity following” value was “significantly lowered”. The “rhythm disturbances of the heart” value in series [2] (dog, in vivo) was “in a great part of the cases, the rhythm disturbances of the heart could be suspended”. Also, in [2] (oral administration), the “frequency of the extrasystoles, oral administration” value was “diminished in a dose-dependent manner and very significantly”. In series [3] (setting [12]), the ED50 is 8.4 mg/kg. Also, in series [3] (setting [14]), the ED50 amounted to 0.34 mg/kg. The “strength and duration of the effect on the angina induced by vasopressin” value in [3] (versus fendiline) is “highly exceed that of fendiline”. Besides, in series [4], the “ratio (row drawing 11; BP/FFT by arithmetic)” value was 1.25 and the “ratio (row drawing 13; DP/dt max/FFT by arithmetic)” value worked out at 3.33. The LD50 in series [5] (setting [15]) was determined as 16 mg/kg. In [5] (setting [16]), the selectivity ratio came to 47.1. Besides, the LD50 in series [5] (setting [17]) was determined as 1400 mg/kg. Further, the selectivity ratio in series [5] (setting [18]) was 167. For the same compound, the “Quotient of the therapeutic ratios, intravenous” value in series [5] (rats, i.v., therapeutic ratio of KHL-8430 to that of fendiline) stood at 8.89. The “Quotient of the therapeutic ratios, oral” value in [5] (rats, oral, therapeutic ratio of KHL-8430 to that of fendiline) is reported as 4.17. Moreover, in series [5] (versus fendiline), the “toxicity on intravenous and oral administrations” value was “less toxic than the reference compound”.
`CC(NCCC(c1ccccc1)c1ccccc1)c1ccc(Cl)cc1.Cl` (centres unmarked) [2-(4-chlorophenyl)-6,6-diphenyl-3-azahexane hydrochloride]: in series [3] (setting [13]), the ED50 amounted to 0.054 mg/kg. In [3] (vasopressin angina, i.v., same conditions), the “times as effective as fendiline” value is reported as “about 42 times”.
